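Five concentrations, 48 hours, 96-well plates. At the GI50, growth is halved. TGI: concentration producing complete growth inhibition.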 Where a SMILES comes first, the peptide text is derived from it. Bridges are numbered along the chain shown (N, C = ends). [ ]: non-standard residue; d: D form. The star is where a group is joined. ξ: configuration not given here. ξDab(CH2SO3H) = NC(CCNCS(=O)(=O)O)C(=O)O; Heptanoyl(6-Me) = CC(C)CCCCC(=O)*; Dab = NCC[CH](N)C(=O)O
system: MDA-MB-468 breast; assay: NCI anticancer screen, dose series, 48 h

Compared with `CC[C@@H](C(=O)[C@H](C)[C@H](O)[C@@H](C)[C@H]1O[C@H]([C@@H](CC)C(=O)N(CC)CC)CC[C@H]1C)C1O[C@]2(C=C[C@@H](O)[C@]3(CC[C@@](C)([C@H]4CC[C@](O)(CC)[C@H](C)O4)O3)O2)[C@H](C)C[C@@H]1C` (some centres not stated), `CC[C@]12CC(C(=O)OC)=C3Nc4ccccc4[C@@]34CCN(C14)[C@@H]1c3cc4c(cc3O[C@@H]1[C@H]2O)NC1=C(C(=O)OC)C[C@@]2(CC)C3N(CC[C@@]143)C[C@H]1O[C@H]12` (some centres not stated) is 14-fold lower in GI50: 1.81 µM for the first, 0.129 µM for the second.

Compared with `COc1ccc(Nc2cc(C)nc(NCc3ccccc3)n2)cc1`, `CN(C)CCCOc1c2ccc(Cl)cc2nc2c1oc1ccccc12` is 2.5-fold higher in GI50: 0.776 µM for the first, 1.95 µM for the second.

Going from `C[C@]12CC[C@@H]3c4cc(O)c(O)cc4CC[C@H]3[C@@H]1CC[C@@H]2O` to `C=C1C(=O)O[C@H]2[C@H]1CC/C(C=Nc1c(N)cc(C(F)(F)F)cc1C(F)(F)F)=C\CC[C@@]1(C)O[C@@H]21`, the GI50 falls from 3.82 µM to 1.5 µM (2.5-fold).

Going from `CCN1C(=O)N(CC)C2C1NN=c1s/c(=C\c3ccco3)c(=O)n12` (configuration not stated) to `COCCNc1ccc2c3c(cccc13)C(=O)N(CCN(C)C)C2=O`, the GI50 rises from 0.356 µM to 7.1 µM (20-fold).

Going from `CCC(C)C1NC(=O)C(CCNCS(=O)(=O)O)NC(=O)C(NC(=O)C(CCNCS(=O)(=O)O)NC(=O)C(NC(=O)C(CCNCS(=O)(=O)O)NC(=O)CCCCC(C)C)C(C)O)CCNC(=O)C(C(C)O)NC(=O)C(CCNCS(=O)(=O)O)NC(=O)C(CCNCS(=O)(=O)O)NC(=O)C(C(C)CC)NC1=O` (configuration not stated) ({Heptanoyl(6-Me)}-[ξDab(CH2SO3H)]T[ξDab(CH2SO3H)][Dab][ξDab(CH2SO3H)]II[ξDab(CH2SO3H)][ξDab(CH2SO3H)]T; lactam 4-C; configuration not given here) to `C=C1[C@@H](C)C2[C@H](Cc3ccccc3)NC(=O)[C@]23[C@H](OC(C)=O)/C=C/[C@@](C)(O)C(=O)[C@@H](C)C/C=C/[C@H]3[C@@H]1O` (some centres not stated), the GI50 falls from 0.807 µM to 0.0389 µM (21-fold).

First: CN1CCC2(CC1)NC(=O)c1c(c3ccc(Cl)c(Cl)c3n1C)C2C#N (configuration not stated)
Second: N#Cc1c(N2CCOCC2)nc(=S)[nH]c1-c1ccccc1
The GI50 of the first is 12-fold lower: 2.18 µM for the first, 25.8 µM for the second.

`O=C([O][Hg][CH2]C1OCCOC1[CH2][Hg][O]C(=O)c1ccccc1)c1ccccc1` (configuration not stated) and `N/C(=N/N=C/c1ccccc1)N/N=C\c1ccccc1` are within 1.5-fold of each other in GI50: 1.71 µM for the first, 2.52 µM for the second.

Going from `Cc1cc(Nc2ncc3c(n2)N(C)C(=O)N(c2cc(NC(=O)c4cccc(C(F)(F)F)c4)ccc2C)C3)n(C)n1` to `CN1CCN(Cc2ccc(NC(=O)c3cncc(C#Cc4cnc5ccc(OCC(C)(C)O)nn45)c3)cc2C(F)(F)F)CC1`, the GI50 rises from 0.0579 µM to 0.183 µM (3.2-fold).

Going from `[Cl][Hg][c]1ccc(Cl)s1` to `N#Cc1c(N)n2c(nc1=Nc1ccc(Cl)cc1)sc1cc(Cl)ccc12`, the GI50 rises from 1.19 µM to 3.62 µM (3-fold).

First: CC(C)(C)[Si](C)(C)OC1[C@@H](O[Si](C)(C)C(C)(C)C)[C@@H](CNC(=O)NC(=O)CF)O[C@H]1n1cnc2c(NC(=O)Nc3ccccc3)ncnc21 (some centres not stated)
Second: CCOC(=O)c1cc(C(=O)c2cc(OC)c(OC)c(OC)c2)n2c1ccc1ccccc12
The GI50 of the first is 20-fold higher: 3.21 µM for the first, 0.158 µM for the second.

First: N#C[Se]CCN1C(=O)C2C(C1=O)[C@H]1C=C[C@@H]2S1 (some centres not stated)
Second: CCCCCCCCCCCCSC1=C(Cl)C(=O)C(OC)=C(OC)C1=O
The GI50 of the first is 5.9-fold higher: 2.6 µM for the first, 0.438 µM for the second.

Going from `COc1ccc2c(O)c(/C=C3\N=Nc4ccccc43)oc2c1C[C@@H]1CCNC[C@H]1F` to `Cc1ccc2c(c1)c(Sc1ccc(C(=O)NO)cc1)c1n2CN(C)CC1`, the GI50 falls from 10.4 µM to 1.1 µM (9.5-fold).

Compared with `CC[C@@H](C(=O)[C@H](C)[C@H](O)[C@@H](C)[C@H]1O[C@H]([C@@H](CC)C(=O)N(CC)CC)CC[C@H]1C)C1O[C@]2(C=C[C@@H](O)[C@]3(CC[C@@](C)([C@H]4CC[C@](O)(CC)[C@H](C)O4)O3)O2)[C@H](C)C[C@@H]1C` (some centres not stated), `CC[C@]12CC(C(=O)OC)=C3Nc4ccccc4[C@@]34CCN(C14)[C@@H]1c3cc4c(cc3O[C@@H]1[C@H]2O)NC1=C(C(=O)OC)C[C@@]2(CC)C3N(CC[C@@]143)C[C@H]1O[C@H]12` (some centres not stated) is 5.5-fold lower in TGI: 5.8 µM for the first, 1.05 µM for the second.

Compared with `COc1ccc(Nc2cc(C)nc(NCc3ccccc3)n2)cc1`, `CN(C)CCCOc1c2ccc(Cl)cc2nc2c1oc1ccccc12` is 2-fold higher in TGI: 2.51 µM for the first, 5.07 µM for the second.

Going from `C[C@]12CC[C@@H]3c4cc(O)c(O)cc4CC[C@H]3[C@@H]1CC[C@@H]2O` to `C=C1C(=O)O[C@H]2[C@H]1CC/C(C=Nc1c(N)cc(C(F)(F)F)cc1C(F)(F)F)=C\CC[C@@]1(C)O[C@@H]21`, the TGI falls from 21.1 µM to 3.21 µM (6.6-fold).

`CCN1C(=O)N(CC)C2C1NN=c1s/c(=C\c3ccco3)c(=O)n12` (configuration not stated) and `COCCNc1ccc2c3c(cccc13)C(=O)N(CCN(C)C)C2=O` cannot be ordered by TGI: > 100 µM for the first, > 25 µM for the second.

Going from `CCC(C)C1NC(=O)C(CCNCS(=O)(=O)O)NC(=O)C(NC(=O)C(CCNCS(=O)(=O)O)NC(=O)C(NC(=O)C(CCNCS(=O)(=O)O)NC(=O)CCCCC(C)C)C(C)O)CCNC(=O)C(C(C)O)NC(=O)C(CCNCS(=O)(=O)O)NC(=O)C(CCNCS(=O)(=O)O)NC(=O)C(C(C)CC)NC1=O` (configuration not stated) ({Heptanoyl(6-Me)}-[ξDab(CH2SO3H)]T[ξDab(CH2SO3H)][Dab][ξDab(CH2SO3H)]II[ξDab(CH2SO3H)][ξDab(CH2SO3H)]T; lactam 4-C; configuration not given here) to `C=C1[C@@H](C)C2[C@H](Cc3ccccc3)NC(=O)[C@]23[C@H](OC(C)=O)/C=C/[C@@](C)(O)C(=O)[C@@H](C)C/C=C/[C@H]3[C@@H]1O` (some centres not stated), the TGI rises from 4.89 µM to 12.7 µM (2.6-fold).

First: CN1CCC2(CC1)NC(=O)c1c(c3ccc(Cl)c(Cl)c3n1C)C2C#N (configuration not stated)
Second: N#Cc1c(N2CCOCC2)nc(=S)[nH]c1-c1ccccc1
The TGI of the first is lower: 6.87 µM for the first, > 100 µM for the second.

Compared with `O=C([O][Hg][CH2]C1OCCOC1[CH2][Hg][O]C(=O)c1ccccc1)c1ccccc1` (configuration not stated), `N/C(=N/N=C/c1ccccc1)N/N=C\c1ccccc1` is 3.7-fold higher in TGI: 3.08 µM for the first, 11.3 µM for the second.

`Cc1cc(Nc2ncc3c(n2)N(C)C(=O)N(c2cc(NC(=O)c4cccc(C(F)(F)F)c4)ccc2C)C3)n(C)n1` and `CN1CCN(Cc2ccc(NC(=O)c3cncc(C#Cc4cnc5ccc(OCC(C)(C)O)nn45)c3)cc2C(F)(F)F)CC1` are within 1.5-fold of each other in TGI: 0.396 µM for the first, 0.409 µM for the second.

First: [Cl][Hg][c]1ccc(Cl)s1
Second: N#Cc1c(N)n2c(nc1=Nc1ccc(Cl)cc1)sc1cc(Cl)ccc12
The TGI of the first is lower: 2.77 µM for the first, > 100 µM for the second.

`CC(C)(C)[Si](C)(C)OC1[C@@H](O[Si](C)(C)C(C)(C)C)[C@@H](CNC(=O)NC(=O)CF)O[C@H]1n1cnc2c(NC(=O)Nc3ccccc3)ncnc21` (some centres not stated) and `COc1ccc2c(O)c(/C=C3\N=Nc4ccccc43)oc2c1C[C@@H]1CCNC[C@H]1F` are within 1.5-fold of each other in TGI: 20.1 µM for the first, 23.6 µM for the second.

Compared with `N#C[Se]CCN1C(=O)C2C(C1=O)[C@H]1C=C[C@@H]2S1` (some centres not stated), `CCCCCCCCCCCCSC1=C(Cl)C(=O)C(OC)=C(OC)C1=O` is 2.2-fold higher in TGI: 7.71 µM for the first, 16.9 µM for the second.

`Cc1ccc2c(c1)c(Sc1ccc(C(=O)NO)cc1)c1n2CN(C)CC1` showed a TGI of 2.97 µM.
